Reference: publication PMC10605010, “Immunotechniques for the Group Determination of Macrolide Antibiotics Traces in the Environment Using a Volume-Mediated Sensitivity Enhancement Strategy” (Biosensors, 2023)
Values after ≈ are worked out from the molar mass of the structure shown. Read-outs that look alike come from different tables or passages of the source.

Tests used:
[1] = tested on: anti-BSA-cmoCLA(ae) antibodies; assay: Indirect competitive ELISA (icELISA), variants by coating antigen; type: binding, rabbit; conditions: for CR: CLA = 100
Protocol: In present work, we investigated and compared several new-designed and previously established coating antigens, which were adsorbed on the 96-well Costar plates from 0.1 to 3.0 µg/mL solutions in CBB (pH 9.6) overnight at 4 °C. […] Solutions of these analytes (1 pg/mL–1 μg/mL) were added to wells of the plate along with anti-cmoCLA antibody in PBS-T with 1%BSA and incubated for 1 h at 25 °C in plate-shaker ST-3 L (ELMI Ltd. laboratory equipment, Riga, Latvia). GAR-HRP was used to detect antigen-antibody formed complexes for 1 h at 37 °C. The activity of the bound enzyme was detected using TMB-substrate mixture, and the intensity of colored product was read at 450 nm using a LisaScan spectrophotometer (Erba Mannheim, Czech Republic). […] The relative antibody-binding absorbance (B/B0) was determined for each concentration of analyte and used to construct a calibration curve as B/B0 versus the concentration. Structurally related macrolides CLA, ESE, ROX, AZI, DIR, TUL, and OLE were analyzed for their cross-reactions. […] Assay sensitivity, limit of detection (LOD), and working range of the assay were set as values of IC50, IC10, and IC20-IC80 range, respectively.

[2] = tested on: anti-BSA-cmoCLA(ae) antibody; assay: PrG-ELISA, self-assembly on coated protein G, direct competitive; type: binding, rabbit; conditions: 1.5 h, coating Ab 200 µL, standard/sample 250 µL
From the text: (§1) Another important consideration was the enhancement of the functional activity of antibodies through their oriented immobilization on the surface of polystyrene and its potential impact on the method sensitivity. This was achieved by interacting the adsorbed protein G with the antibody Fc fragments, allowing the antibody-binding fragments to remain spatially accessible. This interaction could be implemented in a step-by-step manner or as a result of self-assembly (Figure 4A). The step-by-step procedure involved the initial formation of a complex between the coated protein G and the antibody (PrG-Ab), followed by a competitive assay step. An alternative self-assembly method implied the competitive interaction of antibody with an analyte (sample) and a tracer in the solution with simultaneous binding to the coated protein G (PrG).

[3] = tested on: anti-BSA-cmoCLA(ae) antibody; assay: PrG-Ab-ELISA, step-by-step oriented antibody coating via protein G, direct competitive; type: binding, rabbit; conditions: 0.5 h, coating Ab 200 µL, standard/sample 250 µL
From the text: as §1

[4] = tested on: Anti-CLA(IgG) coupled to Sepharose beads; assay: Immunobead assay (IBA); type: binding, rabbit; conditions: 2 h
Protocol: Sepharose 4B or Sepharose-CL-2B (Pharmacia, Uppsala, Sweden) were washed with water on a porous glass filter and then squeezed out with a soft press from excess moisture. The washed beads (2 g) were placed in a vial with sodium periodate solution (60 mg in 5 mL H2O) and mixed with a rotary mixer (ELMI Ltd. laboratory equipment, Riga, Latvia) for 45 min. An additional 30 min rotation continued after the addition of ethylene glycol (250 µL). The beads were then washed with water and finally with CBB (pH 9.6) squeezed mildly out. Each of the activated sorbents was placed in a vial for mixing with anti-cmoCLA IgG (10 mg) in 2 mL CBB (pH 9.6) for 48 h at 4 °C. The excess antibody was squeezed out. The beads were then washed with water and placed in a sodium borohydride solution (4 mg/4 mL) for 1 h with occasional shaking. After the final washing with water and PSBT, the resulting immune sorbents were stored at 4 °C in 10 mL of PSBT preserved with Merthiolate (1 mg).
To implement these assay formats, the IgG fraction was first isolated from antiserum via the double precipitation method using caprylic acid and ammonium sulfate, described in detail in [22]. The principle of the assays is based on competition between analyte and enzyme-labeled antigen (HRP-aecAZI) for binding to an antibody coated on the plate (dcELISA) or coupled covalently to Sepharose beads. The latter immunosorbent was used in the immunobeads assay (IBA) and immunofiltration assay (IFA).
Immunobead assay (IBA). Standard solution of analyte or tested sample in 1–2 mL PBST were accomplished with HRP-aecAZI and immunosorbents Anti-CLA(IgG)-S4B or Anti-CLA(IgG)-SCL2B taken in optimized concentration/volume and incubated for 0.5–3 h periods at a rotary mixer mixing (15 rpm). The beads were then pelleted using centrifugation (5 min, 3400× g) and suspended to the original volume with PBST. After three washing cycles, the bead pellet was suspended with TMB-substrate mixture (200 μL), and 8 M sulfuric acid (50 μL) was added 30 min later to terminate enzymatic reaction. The intensity of the colored product was measured using a plate reader at 450 nm.

[5] = tested on: antibody, immunogen Commercial; parameters: method as in doi:10.1007/s12161-015-0130-x; conditions: milk; cited from earlier work
[6] = tested on: antibody, immunogen Commercial; parameters: method as in PMID 26497839; conditions: milk; cited from earlier work
[7] = tested on: antibody to immunogen BSA-cmoCLA(ae); parameters: method as in doi:10.1039/C9QM00429G; conditions: milk; CLA = 100; cited from earlier work
[8] = tested on: antibody to immunogen BSA-cmoCLA(ae); parameters: method as in PMID 32693204; conditions: breast milk; CLA = 100; cited from earlier work
[9] = coating antigen OVA-aecAZI(dma)
[10] = Ab volume 10 µL, standard/sample 1000 µL
[11] = Ab volume 20 µL, standard/sample 2000 µL

## CC[C@H]1OC(=O)[C@H](C)[C@@H](O[C@H]2C[C@@](C)(OC)[C@@H](O)[C@H](C)O2)[C@H](C)[C@@H](O[C@@H]2O[C@H](C)C[C@H](N(C)C)[C@H]2O)[C@](C)(O)C[C@@H](C)C(=O)[C@H](C)[C@@H](O)[C@]1(C)O [ERY, Erythromycin]
[1]; coating antigen OVA(pi)-aecAZI
  IC50: 0.042 ng/mL (≈ 0.0572 nM)
  CR: 105%
[1]; coating antigen OVA(pi)-aecAZI, water
  LOD: 0.01 ng/mL
[1]; [9]
  IC50: 0.223 ng/mL (≈ 0.304 nM)
  CR: 70.4%
[1]; coating antigen OVA-aecAZI(ga)
  IC50: 0.049 ng/mL (≈ 0.0668 nM)
  CR: 87.8%
[1]; coating antigen OVA-cmoERY(ae)
  IC50: 0.240 ng/mL (≈ 0.327 nM)
  CR: 71.7%
[2]
  IC10 (LOD): 0.007 ng/mL (≈ 0.00954 nM)
  IC20-IC80 (working range): 0.015 to 0.199 ng/mL
  IC50: 0.055 ng/mL (≈ 0.0749 nM)
[3]
  IC10 (LOD): 0.002 ng/mL (≈ 0.00273 nM)
  IC20-IC80 (working range): 0.006 to 0.054 ng/mL
  IC50: 0.020 ng/mL (≈ 0.0273 nM)
[4]; [10]
  IC10 (LOD): 0.003 ng/mL (≈ 0.00409 nM)
  IC20-IC80 (working range): 0.006 to 0.056 ng/mL
  IC50: 0.018 ng/mL (≈ 0.0245 nM)
[4]; [11]
  IC10 (LOD): 0.001 ng/mL (≈ 0.00136 nM)
  IC20-IC80 (working range): 0.003 to 0.057 ng/mL
  IC50: 0.012 ng/mL (≈ 0.0164 nM)
[5]
  CR: 100%
  LOD: ni//5 ng/mL
[6]
  CR: 100%
  LOD: ni//0.13 ng/mL
[7]
  CR: 30.1%
[8]
  CR: 7.5%
